Measurements from US7514448B2, “Azaindoles useful as inhibitors of rock and other protein kinases” (Vertex Pharmaceuticals Incorporated, priority 2004, dated 2009).

Experiments:
PKA = PKA (Homo sapiens, UniProt P17612); assay: PKA inhibition assay, coupled enzyme; type: biochemical; conditions: average Ki if more than one determined
In short: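 Coupled PK/LDH assay following NADH depletion: 18 nM PKA, 50 μM ATP, 80 μM Kemptide in 100 mM HEPES pH 7.5, 10 mM MgCl2, 25 mM NaCl, 1 mM DTT, 3% DMSO, at 30 °C. Compound preincubated 10 min before ATP start; initial rates over 15 min, IC50 and Ki by non-linear regression.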

ROCK I (AA 6-553) = ROCK I (AA 6-553) (Homo sapiens, UniProt Q13464); assay: ROCK inhibition assay, coupled enzyme system ("Enzyme"); type: biochemical; conditions: enzyme-linked assay; average Ki if more than one determined
Experimental: Reactions were carried out in a solution containing 100 mM HEPES (pH 7.5), 10 mM MgCl2, 25 mM NaCl, 2 mM DTT and 1.5% DMSO.
If more than one value of Ki has been determined, the average Ki is indicated. If no value is indicated, then the Ki was not determined.

Chain of ROCK I (AA 6-553) (Q13464 6-553, species assumed): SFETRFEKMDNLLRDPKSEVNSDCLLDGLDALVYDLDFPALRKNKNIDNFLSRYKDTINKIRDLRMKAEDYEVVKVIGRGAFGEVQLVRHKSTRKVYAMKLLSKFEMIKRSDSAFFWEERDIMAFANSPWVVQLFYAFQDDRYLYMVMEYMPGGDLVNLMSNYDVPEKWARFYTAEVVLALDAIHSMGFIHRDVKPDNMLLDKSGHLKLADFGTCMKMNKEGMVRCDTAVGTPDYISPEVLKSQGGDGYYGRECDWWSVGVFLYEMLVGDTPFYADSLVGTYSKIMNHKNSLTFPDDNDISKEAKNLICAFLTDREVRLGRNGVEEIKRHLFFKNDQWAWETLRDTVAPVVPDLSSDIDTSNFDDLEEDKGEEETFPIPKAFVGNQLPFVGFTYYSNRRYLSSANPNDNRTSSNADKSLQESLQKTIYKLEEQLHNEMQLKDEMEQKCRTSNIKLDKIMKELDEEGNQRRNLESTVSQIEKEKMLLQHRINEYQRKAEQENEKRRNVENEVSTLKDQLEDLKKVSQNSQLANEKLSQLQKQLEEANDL

Ki (PKA) [nM] | Ki (ROCK I (AA 6-553)) [nM] | SMILES
< 500 | < 500 | O=C(Cc1cccc(S(=O)(=O)N2CCNCC2)c1)Nc1nc(-c2c[nH]c3ncccc23)cs1 [II-25]
500 to 5000 | < 500 | O=C(Cc1cccc(S(=O)(=O)N2CCOCC2)c1)Nc1nc(-c2c[nH]c3ncccc23)cs1 [II-26]
500 to 5000 | < 500 | CCS(=O)(=O)Nc1ccc(CC(=O)Nc2nc(-c3c[nH]c4ncccc34)cs2)c(Cl)c1 [II-35]
500 to 5000 | < 500 | O=C(Cc1cccc(OCCCN2CCNCC2)c1)Nc1nc(-c2c[nH]c3nccc(F)c23)cs1 [II-36]
500 to 5000 | < 500 | CN1CCN(CCCOc2cccc(CC(=O)Nc3nc(-c4c[nH]c5nccc(F)c45)cs3)c2)CC1 [II-37]
500 to 5000 | < 500 | O=C(Cc1cccc(OCCCn2ccnc2)c1)Nc1nc(-c2c[nH]c3nccc(F)c23)cs1 [II-38]
< 500 | < 500 | NC(=O)c1cccc(CC(=O)Nc2nc(-c3c[nH]c4ncccc34)cs2)c1 [II-41]
< 500 | < 500 | O=C(Cc1cccc(S(=O)(=O)N[C@H]2CCOC2)c1)Nc1nc(-c2c[nH]c3ncccc23)cs1 [II-42]
< 500 | < 500 | CS(=O)(=O)Nc1ccc(CC(=O)Nc2nc(-c3c[nH]c4ncccc34)cs2)c(Cl)c1 [II-47]
< 500 | < 500 | CN1CCCN(S(=O)(=O)c2cccc(CC(=O)Nc3nc(-c4c[nH]c5ncccc45)cs3)c2)CC1 [II-52]
500 to 5000 | < 500 | CCN(CC)S(=O)(=O)c1cccc(CC(=O)Nc2csc(-c3c[nH]c4ncccc34)n2)c1 [II-63]
500 to 5000 | 500 to 5000 | CCN(CC)S(=O)(=O)c1cccc(CC(=O)Nc2nnc(-c3c[nH]c4ncccc34)s2)c1 [II-64]
500 to 5000 | < 500 | O=C(Cc1cccc(S(=O)(=O)N2CCOCC2)c1)Nc1nc(-c2c[nH]c3nccc(F)c23)cs1 [II-66]
500 to 5000 | < 500 | CCN(CC)S(=O)(=O)c1cccc(CC(=O)Nc2nc(-c3c[nH]c4nccc(F)c34)cs2)c1 [II-67]
< 500 | < 500 | O=C(Cc1cccc(S(=O)(=O)NCC2CCCO2)c1)Nc1nc(-c2c[nH]c3ncccc23)cs1 (centres unmarked) [II-72]
500 to 5000 | < 500 | CS(=O)(=O)c1ccc(CC(=O)Nc2nc(-c3c[nH]c4ncccc34)cs2)cc1 [II-74]
500 to 5000 | < 500 | COc1cccc(CC(=O)Nc2nc(-c3c[nH]c4ncc(Br)cc34)cs2)c1 [II-77]
500 to 5000 | < 500 | CS(=O)(=O)Nc1cccc(CC(=O)Nc2nc(-c3c[nH]c4ncc(Br)cc34)cs2)c1 [II-78]
< 500 | < 500 | CS(=O)(=O)Nc1ccc(F)c(CC(=O)Nc2nc(-c3c[nH]c4ncccc34)cs2)c1 [II-82]
500 to 5000 | < 500 | CC(C)N1CCN(S(=O)(=O)c2cccc(CC(=O)Nc3nc(-c4c[nH]c5ncccc45)cs3)c2)CC1 [II-89]
< 500 | < 500 | CN(C)CCN(C)S(=O)(=O)c1cccc(CC(=O)Nc2nc(-c3c[nH]c4ncccc34)cs2)c1 [II-90]
< 500 | < 500 | O=C(Cc1ccccc1)Nc1nc(-c2c[nH]c3nccc(Cl)c23)cs1 [II-91]
< 500 | < 500 | COc1cccc(CC(=O)Nc2nc(-c3c[nH]c4nccc(Cl)c34)cs2)c1 [II-92]
500 to 5000 | 500 to 5000 | CCN(CC)S(=O)(=O)c1cccc(CC(=O)Nc2nc(-c3c[nH]c4nccc(Cl)c34)cs2)c1 [II-93]
< 500 | < 500 | CS(=O)(=O)Nc1cccc(CC(=O)Nc2nc(-c3c[nH]c4nccc(Cl)c34)cs2)c1 [II-94]
< 500 | < 500 | CN(C)CCNS(=O)(=O)c1cccc(CC(=O)Nc2nc(-c3c[nH]c4ncccc34)cs2)c1 [II-97]

The remaining lines, values behind:

SMILES | Ki (PKA) [nM] | Ki (ROCK I (AA 6-553)) [nM]
CS(=O)(=O)Nc1cccc(CC(=O)N(c2nc(-c3c[nH]c4ncccc34)cs2)C2CC2)c1 [II-27] | < 500 | < 500
O=C(NCc1ccc(F)cc1F)c1ccc(-c2c[nH]c3ncccc23)s1 [II-28] | < 500 | < 500
O=C(NCc1ccccc1)c1ccc(-c2c[nH]c3ncccc23)s1 [II-29] | < 500 | < 500
COc1cccc(CNC(=O)c2ccc(-c3c[nH]c4ncccc34)s2)c1 [II-30] | < 500 | < 500
O=C(NCCc1ccccc1)c1ccc(-c2c[nH]c3ncccc23)s1 [II-31] | < 500 | < 500
O=C(NCCc1cccc(F)c1)c1ccc(-c2c[nH]c3ncccc23)s1 [II-32] | < 500 | < 500
CS(=O)(=O)Nc1cccc(CC(=O)Nc2cc(-c3c[nH]c4ncccc34)cs2)c1 [II-33] | < 500 | < 500
Nc1ccc(CC(=O)Nc2nc(-c3c[nH]c4ncccc34)cs2)c(Cl)c1 [II-34] | < 500 | < 500
CC(=O)N1[C@H](C)CN(c2nc(-c3c[nH]c4ncc(Cl)cc34)cs2)C[C@@H]1C [II-43] | 500 to 5000 | 500 to 5000
O=C(Cc1ccccc1F)N(c1nc(-c2c[nH]c3ncccc23)cs1)C1CC1 [II-44] | < 500 | < 500
O=C(Cc1ccc(F)cc1F)N(c1nc(-c2c[nH]c3ncccc23)cs1)C1CC1 [II-45] | < 500 | < 500
CS(=O)(=O)Nc1cccc(CC(=O)Nc2csc(-c3c[nH]c4ncccc34)n2)c1 [II-46] | < 500 | < 500
CC(C)S(=O)(=O)Nc1ccc(CC(=O)Nc2nc(-c3c[nH]c4ncccc34)cs2)c(Cl)c1 [II-48] | < 500 | < 500
COc1cccc(CC(=O)Nc2csc(-c3c[nH]c4ncccc34)n2)c1 [II-55] | < 500 | < 500
O=C(Cc1ccc(F)cc1F)Nc1csc(-c2c[nH]c3ncccc23)n1 [II-56] | < 500 | < 500
O=C(Cc1cccc(S(=O)(=O)N2CCOCC2)c1)Nc1csc(-c2c[nH]c3ncccc23)n1 [II-57] | 500 to 5000 | < 500
O=C(Cc1cccc(S(=O)(=O)N2CCOCC2)c1)Nc1nnc(-c2c[nH]c3ncccc23)s1 [II-58] | 500 to 5000 | 500 to 5000
O=C(Cc1cccc(S(=O)(=O)N2CCOCC2)c1)Nc1cc(-c2c[nH]c3ncccc23)cs1 [II-59] | < 500 | < 500
O=C(Cc1ccccc1F)Nc1csc(-c2c[nH]c3ncccc23)n1 [II-60] | < 500 | < 500
O=C(Cc1ccc(F)cc1)Nc1csc(-c2c[nH]c3ncccc23)n1 [II-61] | < 500 | < 500
O=C(Cc1ccccc1)Nc1csc(-c2c[nH]c3ncccc23)n1 [II-62] | < 500 | < 500

SMILES | Ki (PKA) [nM] | Ki (ROCK I (AA 6-553)) [nM]
O=C(NCc1cccc(S(=O)(=O)N2CCOCC2)c1)c1ccc(-c2c[nH]c3ncccc23)s1 [II-65] | < 500 | < 500
O=C(Cc1cccc(O)c1)N(c1nc(-c2c[nH]c3ncccc23)cs1)C1CC1 [II-68] | < 500 | < 500
O=C(Cc1ccc2c(c1)OCO2)N(c1nc(-c2c[nH]c3ncccc23)cs1)C1CC1 [II-69] | < 500 | < 500
COc1cccc(CC(=O)N(c2nc(-c3c[nH]c4ncccc34)cs2)C2CC2)c1 [II-70] | < 500 | < 500
COc1cccc(CNC(=O)c2cc(-c3c[nH]c4ncccc34)cs2)c1 [II-71] | < 500 | < 500
CS(=O)(=O)c1ccc(CC(=O)N(c2nc(-c3c[nH]c4ncccc34)cs2)C2CC2)cc1 [II-73] | 500 to 5000 | < 500
COc1ccc(CC(=O)N(c2nc(-c3c[nH]c4ncccc34)cs2)C2CC2)c(Cl)c1 [II-75] | < 500 | < 500
O=C(Cc1cccc(OCCCC2CCNCC2)c1)N(c1nc(-c2c[nH]c3ncccc23)cs1)C1CC1 [II-76] | 500 to 5000 | < 500
O=C(NCc1cccc(S(=O)(=O)N2CCOCC2)c1)c1cc(-c2c[nH]c3ncccc23)cs1 [II-80] | 500 to 5000 | < 500
O=C(Nc1csc(-c2c[nH]c3ncccc23)n1)c1ccccc1 [II-81] | 500 to 5000 | < 500
O=C(Cc1cccc(OCCCN2CCNCC2)c1)N(c1nc(-c2c[nH]c3ncccc23)cs1)C1CC1 [II-83] | 500 to 5000 | < 500
CN1CCN(CCCOc2cccc(CC(=O)N(c3nc(-c4c[nH]c5ncccc45)cs3)C3CC3)c2)CC1 [II-84] | 500 to 5000 | < 500
O=C(Cc1cccc(OCCN2CCNCC2)c1)N(c1nc(-c2c[nH]c3ncccc23)cs1)C1CC1 [II-85] | < 500 | < 500
CN1CCN(CCOc2cccc(CC(=O)N(c3nc(-c4c[nH]c5ncccc45)cs3)C3CC3)c2)CC1 [II-86] | 500 to 5000 | < 500
O=C(Cc1cccc(S(=O)(=O)N2CCOCC2)c1)N(c1nc(-c2c[nH]c3ncccc23)cs1)C1CC1 [II-87] | < 500 | < 500
O=C(Cc1cc2c(cc1Cl)OCO2)N(c1nc(-c2c[nH]c3ncccc23)cs1)C1CC1 [II-88] | < 500 | < 500
O=C(Cc1cccc(OCCCC2CCNCC2)c1)Nc1nc(-c2c[nH]c3nccc(Cl)c23)cs1 [II-95] | < 500 | < 500
COc1cccc(C2CCCN(c3nc(-c4c[nH]c5ncccc45)cs3)C2=O)c1 (centres unmarked) [II-96] | < 500 | < 500
Cc1sc(NC(=O)Cc2ccccc2)nc1-c1c[nH]c2ncccc12 [II-98] | 500 to 5000 | < 500
COc1cccc(CC(=O)Nc2nc(-c3c[nH]c4ncccc34)c(C)s2)c1 [II-99] | 500 to 5000 | < 500
